Experimental data reported in article PMC6212544, “Identification and Characterization of Novel CFTR Potentiators” (Frontiers in Pharmacology, 2018).

Legend:
R117H CFTR = target: T1, R117H CFTR (Homo sapiens, UniProt P13569, R117H); assay: YFP halide assay, HEK293 cells expressing R117H CFTR; format: cell-based; details: 10 μM forskolin, VX770 = 100
T1 construct: expressed in transfected cells; host or cells: HEK293, transient (jetPEI)
Description: HEK293 cells were transfected with 10–80 ng of plasmid encoding G551D, G178R, G1349D, S549N, R117H, R334W, or wild type CFTR and 20 ng of plasmid encoding YFP (H148Q/I152L/F47L) using jetPEI (Polyplus transfection). Directly after transfection, cells were seeded in black 96-well plates coated with Poly-D-lysine at a density of 70,000 cells per well. The next day, cells were incubated at 27°C for 24 h, for low temperature correction. When evaluating in a chronic setting, the potentiator concentration range was also added to the cells for 24 h. After this incubation period, cells were washed twice with DPBS with Ca^2+ and Mg^2+. Subsequently, cells were treated with 10 μM forskolin and the desired concentration of potentiator in a volume of 40 μl and incubated at room temperature for 10 min, a timepoint optimized in previous experiments resulting in a good window (positive control/negative control > 2) and signal to background ratio. YFP fluorescence was measured using an EnVision plate reader (PerkinElmer). […] The excitation wavelength was 485 nm and the emission wavelength 530 nm. The capacity of potentiators to increase CFTR channel function was expressed as 1-[fluorescence 7 s after NaI addition (F)/fluorescence before NaI addition (F0)]. […]

F508del CFTR = F508del CFTR (Homo sapiens, UniProt P13569, DEL508-508); assay: YFP halide assay, CFBe41o- cells, chemically corrected F508del CFTR; format: cell-based; details: GLPG2222-like compound 1 μM as corrector, Supplementary Figure 2
Description: CFBe41o- cells were plated in black 384-well microplates at a density of 1,500 cells per well. After 24 h, cells were transduced with adenoviruses containing F508del CFTR and YFP (H148Q/I152L/) F47L using a multiplicity of infection of 30 infectious units per cell for each adenovirus. The next day, for the low temperature corrected assay, cells were incubated at 27°C for 24 h, for the chemically corrected assay cells were treated with corrector for 24 h at 37°C. On the day of analysis, cells were washed five times with Dulbecco’s Phosphate-Buffered Saline (DPBS) containing Ca^2+ and Mg^2+ (Life Technologies) using a Microplate Washer (BioTek). […] The capacity of potentiators to increase CFTR channel function was expressed as 1-[fluorescence 36 s after NaI addition (F)/fluorescence before NaI addition (F0)], a timepoint optimized previously, resulting in an optimal signal window. […]
Compound activity was then tested in a more physiologically relevant system, i.e., primary bronchial epithelial cells derived from CF patients. The effect on the function of VX809 (3 μM) corrected F508del/F508del CFTR was determined using an electrophysiological readout (TECC) and the data were compared to the data generated in the YFP halide assay. […]

T1 sequence (P13569 whole entry R117H): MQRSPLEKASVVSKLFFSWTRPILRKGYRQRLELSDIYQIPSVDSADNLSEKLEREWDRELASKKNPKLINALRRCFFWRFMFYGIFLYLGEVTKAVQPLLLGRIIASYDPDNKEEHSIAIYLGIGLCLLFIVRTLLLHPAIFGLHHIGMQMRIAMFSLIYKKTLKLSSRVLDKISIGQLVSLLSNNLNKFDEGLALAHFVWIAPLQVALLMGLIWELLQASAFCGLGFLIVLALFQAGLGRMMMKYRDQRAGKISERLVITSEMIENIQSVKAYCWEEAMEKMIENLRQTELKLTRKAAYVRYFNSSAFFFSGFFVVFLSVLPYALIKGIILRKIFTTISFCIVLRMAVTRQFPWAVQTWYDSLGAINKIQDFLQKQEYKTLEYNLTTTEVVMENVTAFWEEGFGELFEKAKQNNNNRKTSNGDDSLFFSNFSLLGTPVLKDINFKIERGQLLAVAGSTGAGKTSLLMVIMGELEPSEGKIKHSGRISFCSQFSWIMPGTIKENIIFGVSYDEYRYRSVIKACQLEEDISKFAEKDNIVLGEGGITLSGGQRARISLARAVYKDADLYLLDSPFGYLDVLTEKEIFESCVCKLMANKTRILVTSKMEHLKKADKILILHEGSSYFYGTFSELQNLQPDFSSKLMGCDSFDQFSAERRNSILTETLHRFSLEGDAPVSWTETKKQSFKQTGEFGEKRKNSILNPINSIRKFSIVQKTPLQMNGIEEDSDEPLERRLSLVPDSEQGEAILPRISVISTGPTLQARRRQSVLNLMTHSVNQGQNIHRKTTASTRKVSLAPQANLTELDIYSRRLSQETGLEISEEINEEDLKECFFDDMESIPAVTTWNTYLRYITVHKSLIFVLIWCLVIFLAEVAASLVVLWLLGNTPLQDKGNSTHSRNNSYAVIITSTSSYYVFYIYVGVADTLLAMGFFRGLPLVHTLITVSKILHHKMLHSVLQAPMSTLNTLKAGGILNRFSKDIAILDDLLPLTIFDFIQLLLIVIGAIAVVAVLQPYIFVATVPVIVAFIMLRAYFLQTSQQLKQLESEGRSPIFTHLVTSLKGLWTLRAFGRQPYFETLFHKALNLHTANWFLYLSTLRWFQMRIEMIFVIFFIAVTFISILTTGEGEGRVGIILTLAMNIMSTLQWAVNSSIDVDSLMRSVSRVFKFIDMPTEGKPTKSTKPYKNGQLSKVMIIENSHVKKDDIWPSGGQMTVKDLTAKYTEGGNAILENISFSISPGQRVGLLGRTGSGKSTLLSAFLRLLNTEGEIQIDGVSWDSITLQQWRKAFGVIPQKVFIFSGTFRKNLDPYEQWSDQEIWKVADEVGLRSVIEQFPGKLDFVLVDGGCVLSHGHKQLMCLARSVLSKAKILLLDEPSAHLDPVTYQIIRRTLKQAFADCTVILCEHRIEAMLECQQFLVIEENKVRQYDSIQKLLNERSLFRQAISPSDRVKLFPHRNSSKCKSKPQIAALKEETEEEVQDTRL
Chain of F508del CFTR (P13569 with tags, fused parts or gaps DEL508-508): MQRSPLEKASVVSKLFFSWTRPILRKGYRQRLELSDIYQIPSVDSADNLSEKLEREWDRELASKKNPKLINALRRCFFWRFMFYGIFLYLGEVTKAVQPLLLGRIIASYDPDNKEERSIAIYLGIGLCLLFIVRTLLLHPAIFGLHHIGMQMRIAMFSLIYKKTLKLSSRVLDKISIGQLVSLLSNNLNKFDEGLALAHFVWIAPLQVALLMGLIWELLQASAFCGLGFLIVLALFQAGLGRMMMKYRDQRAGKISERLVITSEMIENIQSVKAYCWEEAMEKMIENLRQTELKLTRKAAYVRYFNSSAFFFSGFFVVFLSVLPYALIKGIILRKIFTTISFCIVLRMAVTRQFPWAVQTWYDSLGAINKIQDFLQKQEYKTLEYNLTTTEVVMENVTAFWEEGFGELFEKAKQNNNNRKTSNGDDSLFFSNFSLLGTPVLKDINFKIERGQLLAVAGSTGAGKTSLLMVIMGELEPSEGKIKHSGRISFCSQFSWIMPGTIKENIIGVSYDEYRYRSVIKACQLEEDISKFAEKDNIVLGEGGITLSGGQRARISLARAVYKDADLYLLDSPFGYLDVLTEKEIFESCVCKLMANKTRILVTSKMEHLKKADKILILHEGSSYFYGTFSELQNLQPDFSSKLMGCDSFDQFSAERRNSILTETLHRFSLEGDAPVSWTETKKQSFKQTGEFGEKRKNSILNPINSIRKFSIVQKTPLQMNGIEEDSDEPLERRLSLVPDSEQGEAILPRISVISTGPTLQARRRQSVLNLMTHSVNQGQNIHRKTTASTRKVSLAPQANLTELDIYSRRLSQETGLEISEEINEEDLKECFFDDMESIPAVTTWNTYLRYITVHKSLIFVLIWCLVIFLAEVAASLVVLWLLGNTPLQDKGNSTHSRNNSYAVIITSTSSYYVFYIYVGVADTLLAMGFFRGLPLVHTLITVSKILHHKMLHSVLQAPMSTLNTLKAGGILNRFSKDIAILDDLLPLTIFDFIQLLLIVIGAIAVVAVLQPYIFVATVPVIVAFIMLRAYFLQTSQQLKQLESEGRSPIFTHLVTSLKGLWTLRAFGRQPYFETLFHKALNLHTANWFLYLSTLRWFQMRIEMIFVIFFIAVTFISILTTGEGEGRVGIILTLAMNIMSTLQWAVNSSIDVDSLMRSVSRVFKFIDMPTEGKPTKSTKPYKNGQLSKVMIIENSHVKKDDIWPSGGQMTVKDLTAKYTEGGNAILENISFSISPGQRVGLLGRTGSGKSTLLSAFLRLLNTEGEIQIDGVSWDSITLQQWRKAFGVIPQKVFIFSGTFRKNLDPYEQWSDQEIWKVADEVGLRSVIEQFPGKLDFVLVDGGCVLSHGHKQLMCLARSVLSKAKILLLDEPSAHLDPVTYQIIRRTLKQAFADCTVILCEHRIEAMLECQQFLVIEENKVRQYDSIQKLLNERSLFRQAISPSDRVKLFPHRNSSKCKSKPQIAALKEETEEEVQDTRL

| Efficacy on R117H CFTR relative to VX770 (R117H CFTR) [%] | SMILES | Potency on chemically corrected F508del CFTR (YFP halide assay) (F508del CFTR) |
| --- | --- | --- |
| 120 | CC1(C)Cc2c(sc(NC(=O)c3ccn[nH]3)c2C(N)=O)C(C)(C)O1 [GLPG1837, N-(3-Carbamoyl-5,5,7,7-tetramethyl-5,7-dihydro-4H-thieno[2,3-c]pyran-2-yl)-lH-pyrazole-5-carboxamide] | corresponded closely to the potency obtained on chemically corrected F508del HBE cells |
| 105 | C[C@H](O)CNC(=O)c1ncc(S(=O)(=O)c2ccc(OC(F)(F)F)cc2)cc1N [GLPG2451] | corresponded closely to the potency obtained on chemically corrected F508del HBE cells |
